From the OligoGym collection
These antisense oligonucleotides have a phosphorothioate backbone; sugars and methylation of C are not fully specified.

These sequences were tested against AKT1. Details: ASO.
Also: test concentration or dose not given here.

| Sequence | remaining target (mRNA or protein) (fraction of control) |
| --- | --- |
| ACAGCGTGGCTTCTCTCA | 0.88 |
| CGGTCCTCGGAGAACACA | ≥ 1 |
| CATAATACACAATAACAA | 0.61 |
| AGCCAATGAAGGTGCCAT | 0.33 |
| CCTAAGCCCCTGGTGACA | 0.85 |
| TGCCATCATTCTTGAGGA | 0.35 |
| GATAGTTTTCTTCCCTAC | ≥ 1 |

What follows are sequences tested against GNAI2. Details: ASO.

| Sequence | remaining target (mRNA or protein) (fraction of control) |
| --- | --- |
| AACATTTGGACTTGGCTG | 0.76 |
| CGTTCTTGGTGTCGGTGG | 0.39 |
| ATGGTGCTCTTCCCTGAC | 0.52 |
| CGCAGAAGATGATGGCTG | 0.67 |
| TGAGCAGGTGGACTGTGG | 0.31 |
| CCCCTCCCTCATACACAG | 0.62 |
| CTTCCCTGACTCCCCAGC | 0.3 |
| CTGTGACGCCCTCAAAGC | 0.51 |
| GAACATAAGCCAGAAGGG | 0.94 |
| ACCAGCATCTCAGACAAG | ≥ 1 |
| CCCTCCAGACGCAGCCTT | 0.47 |
| GCCCCGCTGCCCCTCAGA | 0.65 |
| AGACAAGGGCAGGCTTCA | 0.37 |
| AGCCCATCCCGCCGTCCG | 0.91 |
| AAAGAGAGGAAAGAGGAG | 0.99 |
| AGCTGCCTGGCGTCGTCC | 0.34 |
| ACACAGACAAGACAATGT | ≥ 1 |
| GCGCTTATTCAGGTCCTC | 0.33 |
| AGGCTCCCTGTAAACATT | 0.77 |
| CGCCCTCAAAGCAGTGGA | 0.61 |

| Sequence | remaining target (mRNA or protein) (fraction of control) |
| --- | --- |
| AGCTGGTATTCCCTTGAG | 0.55 |
| GGGAAGCAGATGGTCAGG | 0.86 |
| GGTTCATCTCCTCGTCCT | 0.64 |
| ACATCTTGAAGTGTAGGT | 0.78 |
| GGCAGGCTTCAAACAGGG | 0.52 |
| GGAAAGAGGAGAAAAGCG | 0.65 |
| CCCGCCCGACCCACCCGA | 0.62 |
| CGGACAGGTCATCAGGGA | 0.59 |
| CAACAGCAGCAACTTCAC | 0.89 |
| GGCCTGTGCGAACCCCTC | 0.96 |
| TTCAGGTCCTCAAACTTA | 0.38 |
| AGGAAGAGGATGATGGAC | ≥ 1 |
| CTTGAAGGTGAAGTGTGT | 0.74 |
| TGAAGTGTGTCTCCACGA | 0.61 |
| AGGTCGTTCAGGTAGTAG | 0.64 |
| CCTCAAACTTACTCTGGA | 0.85 |
| GGGTCCGTAGCACATCTT | 0.47 |
| CTGCTTGACGATGGTGCT | 0.6 |
| AGTCCTTCAGGTTGTTCT | 0.54 |
| GCGAACCCCTCCCCTACG | 0.71 |

The sequences below were run against ITGB3. Details: ASO.

| Sequence | remaining target (mRNA or protein) (fraction of control) |
| --- | --- |
| ACATACTGACATTCTCCC | ≥ 1 |
| TGTCACTACCAACATGAC | 0.32 |
| AGTCCTCCTCTGAGCACT | 0.55 |
| GTTCTGGATGCTCCACAG | 0.55 |
| TCCTTCGGCCTGAGGGAG | 0.57 |
| TCACCCTCAAGCTAAGCA | ≥ 1 |
| CTTTAGAACGGATTTTCC | ≥ 1 |
| ATGACTGCTTATCATTAA | ≥ 1 |
| AGCTTCTCAGTCATCAGC | 0.28 |
| AAAGGCACAGGCAGCTCT | ≥ 1 |
| GACTCCTGCAATCCTGGC | 0.53 |
| TCAAACTTCTTACACTCC | 0.54 |
| TCAGCTTGGGCCTGGCAG | 0.6 |
| ACTCACTGGGAACTCGAT | 0.66 |
| GCCAGCACAGTCACCCAG | ≥ 1 |
| CCACGGGCTTTATGGTAA | 0.63 |
| CAATAAGGCAAATCTGAA | 0.77 |
| AGATGCTGGTACATCCCC | 0.4 |
| CTTCCGTCCAATGCTATA | 0.96 |
| GCATCCTTGCCAGTGTCC | 0.47 |
| AGCTGCTGAGAGTCAGGC | 0.22 |
| CACATTGACCACAGAGGC | 0.74 |
| TGGATGGAGAAATTCTTC | 0.64 |
